The NIST ThermoML archive (doi:10.1016/j.fluid.2005.11.016)

How the values were obtained:
[1] = Liquid
[2] = excess molar enthalpy (molar enthalpy of mixing); xn = mol fraction of the nth substance listed; conditions: 303.15 K, 101 kPa, Liquid, Calvet calorimetry

Cc1cccc(C)n1 [2,6-dimethylpyridine]
[1]
Conditions	vapor or sublimation pressure [kPa]
263.15 K	0.065
273.15 K	0.143
283.15 K	0.296
293.15 K	0.575
303.15 K	1.061
313.15 K	1.868
323.15 K	3.154
333.15 K	5.129
343.15 K	8.066
353.15 K	12.31

Cc1cccc(C)n1 [2,6-dimethylpyridine] + Cc1ccccc1
[2]
Conditions	excess molar enthalpy [kJ/mol]
x1 = 0.0145	0.062
x1 = 0.2129	0.083
x1 = 0.2993	0.085
x1 = 0.3406	0.088
x1 = 0.434	0.086
x1 = 0.4479	0.087
x1 = 0.5547	0.08
x1 = 0.5885	0.076
x1 = 0.6718	0.07
x1 = 0.7056	0.068
x1 = 0.7248	0.064
x1 = 0.7746	0.05
x1 = 0.8563	0.035

Cc1cncc(C)c1 [3,5-dimethylpyridine]
[1]
Conditions	vapor or sublimation pressure [kPa]
263.15 K	0.016
273.15 K	0.038
283.15 K	0.083
293.15 K	0.169
303.15 K	0.325
313.15 K	0.596
323.15 K	1.049
333.15 K	1.775
343.15 K	2.904
353.15 K	4.603

Cc1cncc(C)c1 [3,5-dimethylpyridine] + Cc1ccccc1
[2]
Conditions	excess molar enthalpy [kJ/mol]
x1 = 0.1248	0.055
x1 = 0.1817	0.068
x1 = 0.2194	0.078
x1 = 0.3217	0.09
x1 = 0.4079	0.106
x1 = 0.5991	0.11
x1 = 0.6191	0.107

Cc1ccccc1 [toluene]
[1]
Conditions	vapor or sublimation pressure [kPa]
263.15 K	0.468
273.15 K	0.908
283.15 K	1.666
293.15 K	2.911
303.15 K	4.873
313.15 K	7.852
323.15 K	12.23
333.15 K	18.46
343.15 K	27.12
353.15 K	38.87
